Measured values as given in the supplement of paper PMC10307832.

Columns and labels:
Test in all cases: relative viability (nuclei count vs DMSO), 5 days (fraction); higher = more cells survive
[1] = compound: CNC(=O)c1ccccc1Sc1ccc2c(/C=C/c3ccccn3)n[nH]c2c1 [Axitinib] + CS(=O)(=O)CCNCc1ccc(-c2ccc3ncnc(Nc4ccc(OCc5cccc(F)c5)c(Cl)c4)c3c2)o1 [Lapatinib] (partner 2 µM)
Summary of the method: (§1)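 Lung cancer cell lines in 1536-well plates got either a single drug or a fixed anchor-drug dose together with five library-drug doses (not always all listed) in √10 steps, by pin tool, on the day after seeding. Nuclei were counted after 5 days, and relative viability is the treated-to-vehicle ratio of nuclei counts. Values are medians of duplicate plates.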

[2] = compound: Nc1nc(Nc2ccc3c(c2)CC[C@@H](N2CCCC2)CC3)nn1-c1cc2c(nn1)-c1ccccc1CCC2 [Bemcentinib] + O=C(c1cc(Cc2n[nH]c(=O)c3ccccc23)ccc1F)N1CCN(C(=O)C2CC2)CC1 [Olaparib] (partner 8 µM)
Summary of the method: as §1

[3] = compound: Nc1nc(Nc2ccc3c(c2)CC[C@@H](N2CCCC2)CC3)nn1-c1cc2c(nn1)-c1ccccc1CCC2 [Bemcentinib] + N=C(N)NC(=N)NCCc1ccccc1 [Phenformin] (partner 250 µM)
Summary of the method: as §1

[4] = compound: CC1=CC=C(C=C1)C(=O)CN2C3=C(CCCC3)SC2=N [Pifithrin_alpha] + N=C(N)NC(=N)NCCc1ccccc1 [Phenformin] (partner 250 µM)
Summary of the method: as §1

Row | Cell Line | relative viability ([1]; first compound 0.005 µM) | relative viability ([1]; first compound 0.01581 µM) | relative viability ([1]; first compound 0.05 µM) | relative viability ([1]; first compound 0.1581 µM) | relative viability ([1]; first compound 0.5 µM) | relative viability ([2]; first compound 0.04 µM) | relative viability ([2]; first compound 0.1265 µM) | relative viability ([2]; first compound 0.4 µM) | relative viability ([2]; first compound 1.265 µM) | relative viability ([2]; first compound 4 µM) | relative viability ([3]; first compound 0.04 µM) | relative viability ([3]; first compound 0.1265 µM) | relative viability ([3]; first compound 0.4 µM) | relative viability ([3]; first compound 1.265 µM) | relative viability ([3]; first compound 4 µM) | relative viability ([4]; first compound 1 µM) | relative viability ([4]; first compound 3.162 µM) | relative viability ([4]; first compound 10 µM) | relative viability ([4]; first compound 31.62 µM) | relative viability ([4]; first compound 100 µM)
1 | EBC-1 | 0.218 | 0.218 | 0.172 | 0.239 | 0.221 | 0.773 | 0.73 | 0.693 | 0.691 | 0.754 |  |  |  |  |  |  |  |  |  | 
2 | IA-LM | 0.83 | 0.884 | 0.781 | 0.747 | 0.788 | 0.799 | 0.913 | 0.885 | 0.859 | 0.89 |  |  |  |  |  |  |  |  |  | 
3 | LCLC-103H |  |  |  |  |  | 0.802 | 0.811 | 0.796 | 0.86 | 0.783 | 0.366 | 0.255 | 0.332 | 0.289 | 0.35 | 0.336 | 0.313 | 0.373 | 0.355 | 0.375
4 | NCI-H441 |  |  |  |  |  | 0.606 | 0.665 | 0.53 | 0.537 | 0.402 | 0.831 | 0.919 | 1.04 | 1.04 | 0.948 | 0.893 | 0.988 | 1.15 |  | 0.994
5 | NCI-H522 |  |  |  |  |  | 0.739 | 0.696 | 0.593 | 0.556 | 0.652 | 0.598 | 0.733 | 0.729 | 0.722 | 0.674 | 0.736 | 0.63 | 0.65 | 0.673 | 0.693
6 | NCI-H1299 | 0.956 | 0.993 | 0.96 | 0.97 | 1.02 | 1.01 | 1.02 | 0.961 | 1 | 0.93 |  |  |  |  |  |  |  |  |  | 
7 | NCI-H1563 | 0.956 | 0.85 | 0.931 | 0.863 | 0.694 |  |  |  |  |  | 0.671 | 0.742 | 0.671 | 0.671 | 0.618 | 0.622 | 0.706 | 0.643 | 0.601 | 0.616
8 | NCI-H1623 |  |  |  |  |  |  |  |  |  |  | 0.607 | 0.497 | 0.621 | 0.641 | 0.563 | 0.556 | 0.619 | 0.556 | 0.465 | 0.561
9 | NCI-H1648 |  |  |  |  |  | 1.3 | 0.925 | 0.746 | 0.777 | 0.695 |  |  |  |  |  |  |  |  |  | 
10 | NCI-H1703 | 0.848 | 0.423 | 0.274 | 0.273 | 0.441 | 0.34 | 0.447 | 0.465 | 0.389 | 0.357 |  |  |  |  |  |  |  |  |  | 
11 | NCI-H2342 |  |  |  |  |  | 0.43 | 0.441 | 0.359 | 0.486 | 0.463 | 0.564 | 0.581 | 0.611 | 0.617 | 0.611 | 0.484 | 0.622 | 0.543 | 0.585 | 0.553
12 | SW 900 |  |  |  |  |  | 0.841 | 1.17 | 0.804 | 0.769 | 0.817 | 0.396 | 0.588 | 0.557 | 0.648 | 0.458 | 0.519 | 0.605 | 0.715 | 0.569 | 0.393
